Results: ChEMBL document CHEMBL5344447, “A Homodimer of Withaferin A Formed by Base-Promoted Elimination of Acetic Acid from 27-O-Acetylwithaferin A Followed by a Diels-Alder Reaction” (J Nat Prod, 2024)

Legend:
LNCaP = assay: Cytotoxicity against human LNCaP cells assessed as reduction in cell proliferation by MTT assay; format: functional, cell-based
[1] = Cytotoxicity against human hormone nonresponsive and Castration-resistant 22Rv1 cells assessed as reduction in cell proliferation by MTT assay; format: functional, cell-based, Castration-resistant 22Rv1 cell
DU-145 = assay: Cytotoxicity against human hormone nonresponsive DU-145 cells assessed as reduction in cell proliferation by MTT assay; format: functional, cell-based
PC-3 = assay: Cytotoxicity against human hormone nonresponsive PC-3 cells assessed as reduction in cell proliferation by MTT assay; format: functional, cell-based
[2] = Cytotoxicity against human HFF cells assessed as reduction in cell proliferation by MTT assay; format: toxicity, cell-based

Structure (SMILES) | IC50 (LNCaP) [nM] | IC50 [1] [nM] | IC50 (DU-145) [nM] | IC50 (PC-3) [nM] | IC50 [2] [nM]
CC(=O)OCC1=C(C)C[C@H]([C@@H](C)[C@H]2CC[C@H]3[C@@H]4C[C@H]5O[C@]56[C@@H](O)C=CC(=O)[C@]6(C)[C@H]4CC[C@]23C)OC1=O | 1900 | 1400 | 800 | 300 | 1900
C=C1C[C@@H]([C@@H](C)[C@H]2CC[C@H]3[C@@H]4C[C@H]5O[C@]56[C@@H](O)C=CC(=O)[C@]6(C)[C@H]4CC[C@]23C)OC(=O)[C@@]12CCC1=C(C[C@@H]([C@@H](C)[C@H]3CC[C@H]4[C@@H]5C[C@H]6O[C@]67[C@@H](O)C=CC(=O)[C@]7(C)[C@H]5CC[C@]34C)OC1=O)C2 | 900 | 1100 | 1000 | 200 | 600
C=C1C(=O)O[C@@H]([C@@H](C)[C@H]2CC[C@H]3[C@@H]4C[C@H]5O[C@]56[C@@H](OC(C)=O)C=CC(=O)[C@]6(C)[C@H]4CC[C@]23C)C=C1C | 1600 | 1500 | 2500 | 400 | 2000
C=C1C[C@@H]([C@@H](C)[C@H]2CC[C@H]3[C@@H]4C[C@H]5O[C@]56[C@@H](OC(C)=O)C=CC(=O)[C@]6(C)[C@H]4CC[C@]23C)OC(=O)[C@@]12CCC1=C(C[C@@H]([C@@H](C)[C@H]3CC[C@H]4[C@@H]5C[C@H]6O[C@]67[C@@H](OC(C)=O)C=CC(=O)[C@]7(C)[C@H]5CC[C@]34C)OC1=O)C2 | > 5000 | 2600 | 3700 | 1000 | 2500
C=C1C[C@@H]([C@@H](C)[C@H]2CC[C@H]3[C@@H]4C[C@H]5O[C@]56[C@@H](OC(=O)c5ccc([N+](=O)[O-])cc5)C=CC(=O)[C@]6(C)[C@H]4CC[C@]23C)OC(=O)[C@@]12CCC1=C(C[C@@H]([C@@H](C)[C@H]3CC[C@H]4[C@@H]5C[C@H]6O[C@]67[C@@H](OC(=O)c6ccc([N+](=O)[O-])cc6)C=CC(=O)[C@]7(C)[C@H]5CC[C@]34C)OC1=O)C2 | 2300 | 1100 | 1100 | 200 | 500
C=C1C(=O)O[C@@H]([C@@H](C)[C@H]2CC[C@H]3[C@@H]4C[C@H]5O[C@]56[C@@H](O)C=CC(=O)[C@]6(C)[C@H]4CC[C@]23C)C=C1C | > 5000 | > 5000 | > 5000 | 2200 | > 5000
COc1cccc2c1C(=O)c1c(O)c3c(c(O)c1C2=O)C[C@@](O)(C(=O)CO)C[C@@H]3O[C@H]1C[C@H](N)[C@H](O)[C@H](C)O1 [DOXORUBICIN] | 100 | 40 | 100 | 600 | 1400
